Assay results from patent publication US8716355B2, “Hydroxylated tolans and related compounds in the treatment of a cancer” (Kent State University, priority 2007, dated 2014).
Where “and” joins values, the source holds several entries; their conditions need not be identical. Equal values may be shown once. Read-outs that look alike come from different tables or passages of the source.

Tests used:
[1] = system: MeWo; assay: MTT cytotoxicity, MeWo melanoma; assay type: cell-based; conditions: Homo sapiens, 72 h, 3 Days, read-out: CD50 (μM) MeWo
Procedure: (§1) Cell killing was evaluated using the colorimetric MTT assay. The assay measures the formation of a colored product from a chromogenic precursor, the tetrazole 3-[4,5-dimethylthiazol-2-yl]-2,5 diphenyltetrazolium bromide (MTT). The yellow MTT is reduced to purple formazan in the mitochondria of living cells. A solubilization solution (typically dimethyl sulfoxide or sodium dodecyl sulfate in dilute hydrochloric acid) is added to dissolve the insoluble purple formazan product into a colored solution. The absorbance of this colored solution is quantified by measuring at a certain wavelength (usually between 500 and 600 nm) by a spectrophotometer. The amount of purple formazan product generated is proportional to the number of viable cells (Mosmann, T., 1983, J. Immunol. Meth. 65:55-63; Wilson, A. P., Cytotoxicity and Viability Assays. In: Animal Cell Culture: A Practical Approach, 3rd ed. (Masters, J R W, ed.) Oxford University Press: Oxford, Vol. 1, pp. 175-219. 2000). This MTT assay is used widely to assess the cytotoxicity and selectivity of compounds such as anti-cancer drugs. The assay is suitable for rapid toxicity characterization of a test agent such as a drug formulation. […] A lower CD50 indicates a greater cytotoxic activity (as a lower amount of the agent is needed to achieve a fixed level of cytotoxicity). […]

[2] = system: Vero cells; assay: Cytotoxicity (CD50) on Vero cells; assay type: cell-based; conditions: 48 hours of exposure
Source text: See Example II for tumor cell cytotoxicity of these compounds. […] NAB group 32 contains two compounds, Tolan-2 (also designated herein as KST-201) and Stil-2. Based on the NAB, they were classified as topological isomers. However, chemically they differ because Stil-2, a […], contained a double bonded linker, while Tolan-2 contained a triple bonded linker. The cytotoxicity of the two molecules on Vero cells differed markedly: Tolan-2 was less toxic than Stil-2.

[3] = system: normal human fibroblasts (MHRF); assay: MTT cytotoxicity, normal human fibroblasts; assay type: cell-based; conditions: for CD50 against MHRF: MTT
Procedure: As a first step, the antitumor activity of the tolans was assessed against a panel of three cancer cells lines that produce solid tumors upon implantation into animals. DU145 is an androgen-independent prostate cancer cells. T24 is a transitional cell bladder carcinoma cell. MDAH2274 (“MDAH) is an endometroid ovarian adenocarcinoma cell. To assess the selectivity of this antitumor activity, the toxicity of the tolans to normal human fibroblasts (MHRF) was examined. Subsequently, studies with Tolan-3 (KST-201) were expanded to test its action on a wide range of tumor cell lines.
(§2) Cell killing was evaluated using the colorimetric MTT assay. The assay measures the formation of a colored product from a chromogenic precursor, the tetrazole 3-[4,5-dimethylthiazol-2-yl]-2,5 diphenyltetrazolium bromide (MTT). The yellow MTT is reduced to purple formazan in the mitochondria of living cells. A solubilization solution (typically dimethyl sulfoxide or sodium dodecyl sulfate in dilute hydrochloric acid) is added to dissolve the insoluble purple formazan product into a colored solution. The absorbance of this colored solution is quantified by measuring at a certain wavelength (usually between 500 and 600 nm) by a spectrophotometer. The amount of purple formazan product generated is proportional to the number of viable cells (Mosmann, T., 1983, J. Immunol. Meth. 65:55-63; Wilson, A. P., Cytotoxicity and Viability Assays. In: Animal Cell Culture: A Practical Approach, 3rd ed. (Masters, J R W, ed.) Oxford University Press: Oxford, Vol. 1, pp. 175-219. 2000). This MTT assay is used widely to assess the cytotoxicity and selectivity of compounds such as anti-cancer drugs. The assay is suitable for rapid toxicity characterization of a test agent such as a drug formulation. […] A lower CD50 indicates a greater cytotoxic activity (as a lower amount of the agent is needed to achieve a fixed level of cytotoxicity). Two agents can be compared by examining the fold-increase or decrease in their CD50 values.

[4] = system: T24; assay: MTT cytotoxicity, T24 bladder cancer cells; assay type: cell-based, human
Procedure: As a first step, the antitumor activity of the tolans was assessed against a panel of three cancer cells lines that produce solid tumors upon implantation into animals. DU145 is an androgen-independent prostate cancer cells. T24 is a transitional cell bladder carcinoma cell. MDAH2274 (“MDAH) is an endometroid ovarian adenocarcinoma cell. To assess the selectivity of this antitumor activity, the toxicity of the tolans to normal human fibroblasts (MHRF) was examined.
as §2, with “The amount of purple formazan product generated is proportional to the number of viable cells (Mosmann, T., 1983, J. Immunol. Meth. 65:55-63; Wilson, A. P., Cytotoxicity and Viability Assays. In: Animal Cell Culture: A Practical Approach, 3rd ed. (Masters, J R W, ed.) Oxford University Press: Oxford, Vol. 1, pp. 175-219. 2000).” left out, “values. […]” for “values.”

[5] = system: HSV-1; assay: HSV-1 replication in infected Vero cells (plaque assay); assay type: cell-based, Herpes Simplex Virus-Type 1; conditions: for IC50: Human alphaherpesvirus 1, Vero, read-out: IC50, concentration at which 50% of HSV-1 replication was inhibited
Procedure: For this purpose HSV-1 replication at 24, 48 and 72 h was examined in the presence or absence of varying concentrations of the polyphenol.
The SI is the ratio of the CD50 divided by a selected inhibitory concentration (IC %).
Viral inhibition by Tolan-3 appeared to occur after viral entry into cells. […] Subsequently, the compound was removed and replaced with culture medium alone, and the incubated continued for 48 or 72 more hrs. In a second experiment, HSV-1 infected Vero cells were incubated with 350 μM Tolan-3 for 48 h. Thereafter, the Tolan-3 was removed and replaced by medium and the incubation continued for an additional 24 h. Viral titers were calculated by a standard plaque assay.

[6] = system: HT29; assay: MTT cytotoxicity, HT29 colon; assay type: cell-based; conditions: Homo sapiens, HT-29, 72 h; 3 Days; read-out: CD50 (μM) HT29
Procedure: as §1

[7] = system: NCIH460; assay: MTT cytotoxicity, NCIH460 lung; assay type: cell-based; conditions: Homo sapiens, NCI-H460, 72 h; 3 Days; read-out: CD50 (μM) NCIH460
Procedure: as §1

[8] = MTT, 1 day incubation, read-out: CD50 against T24, compound tested individually

SMILES	IC50 [1]	CD50 [2]	Log CD50 [2]	CD50 against MHRF ([3]; 2 days incubation)	CD50 against MHRF ([3]; 3 days incubation)	IC50 [4, 8]	IC50 [5]	IC50 [6]	IC50 [7]	further results
Oc1ccc(/C=C/c2cc(O)cc(O)c2)cc1 [Resveratrol, 3,5,4′-trihydroxy-trans-stilbene, reference compound]	185 ± 3.7 µM	264 µM	2.42	50.9 ± 0.6 µM	44.3 ± 3.0 µM and 47 ± 6.0 µM	35.7 ± 1 µM	23.4 µM	163 ± 0.3 µM	43 ± 20 µM	CD50 against MHRF ([3]; 1 day incubation): 154.8 ± 16.5 µM; CD50 against MHRF ([3]; 1 day incubation, listed as resveratrol): 155 µM; CD50 against MHRF ([3]; 3 days incubation, listed as resveratrol): 44 µM; IC50 ([4]; Homo sapiens, T-24, 24 h, MTT, 1 day incubation, read-out: CD50 against T24, compound tested individually): 36 µM; IC50 ([4]; Homo sapiens, T-24, 48 h, MTT, 2 days incubation, read-out: CD50 against T24, compound tested individually): 29.1 ± 0.05 µM; IC50 ([4]; MTT, 3 days incubation, listed as resveratrol, read-out: CD50 against T24): 23 µM; IC50 ([4]; MTT, 3 days incubation, read-out: CD50 against T24): 22.6 ± 0.25 µM
Oc1ccc(C#Cc2ccc(O)cc2)cc1 [KST-201, 4,4′-dihydroxytolan]	156 ± 2.5 µM	106 µM	2.03	194.1 ± 9.60 µM	153 µM and 153.2 ± 4.40 µM and 153 ± 4.4 µM	83 µM and 82.6 µM	15.6 µM	79 ± 0.8 µM	42 ± 2 µM	Fold less toxic to normal fibroblasts than resveratrol ([3]; Table 15 vs Table 14): 3.5 fold; Fold more potent in killing T24 cells vs. control MHRF fibroblasts [4]: 18 fold; IC50 ([4]; Homo sapiens, T-24, 24 h, VC:KST-201 200:1, 1 day, read-out: CD50 (μM) of each Compound tested in combination, T24): 3.19 µM; IC50 ([4]; Homo sapiens, T-24, 48 h, VC:KST-201 200:1, 2 days, read-out: CD50 (μM) of each Compound tested in combination, T24): 3.17 µM; IC50 ([4]; Homo sapiens, T-24, 72 h, MTT, 3 days incubation, read-out: CD50 against T24): 8.5 µM; IC50 ([4]; MTT, 2 days incubation, read-out: CD50 against T24, compound tested individually): 31.1 ± 0.81 µM; Fold more toxic to T24 bladder cancer cells than resveratrol ([4]; Table 15 vs Table 14): 2.8 fold; Increase of cytotoxic potency when given together, T24 ([4]; VC:KST-201 200:1): about 7 fold; SI50 (selectivity index, CD50 divided by IC50) ([5]; 48 h post-infection): 6.8; Effect on HSV-1 viral replication in Vero cells (in words) ([5]; at CD50, 75% and 50% of CD50, 24, 48, 72 h): significant anti-HSV activity
